Two molecules from patent US20110207916A1, “Dual Affinity Polypeptides for Purification” (priority 2007, published 2011) can be followed below.

Test [1] has as its target T1, AMG-Z (AMG(1-526aa)::Z, Aspergillus niger glucoamylase fused to Z domain of Staphylococcus aureus protein A, SEQ ID NO 25) (Aspergillus niger, UniProt P69328).
T1 construct: made in house; host or cells: Aspergillus oryzae (transformant JaL1171 of host BECh2)
The test is described as follows: Biacore SPR, binding of DAP AMG-Z to acarbose ligand (biotin-acarbose on SA chip). On the technique in general: SPR reads the build-up and loss of mass on a sensor chip optically.
Text: Immobilisation occurred by direct covalent coupling to the surface (using the Amine Coupling Kit, BiaCore, GE Health Care) or via a capturing molecule as prescribed by the manufacturer (BiaCore, GE Health Care). The amount of coupled target was quantified and expressed in Refractive Units (RU). […]

Test [2] concerns VhhRR6(R2)-Z + IgG (variable region of Llama single chain antibody against RR6 fused to Z domain of Staphylococcus aureus protein A, SEQ ID NO 28, with IgG …). The test is described as follows: Biacore SPR, binding of DAP VhhRR6(R2)-Z to Reactive Red 6 ligand in the presence of IgG. The note with it: Table 1 footnote b; VhhRR6(R2)-Z mixed with IgG before loading to the Biacore. An excerpt: The commercialised surface plasmon resonance (SPR) technology for real time monitoring biomolecular binding event is used to measure the binding affinities for the prepared DAP candidates. The general principle of this technology is that a SPR sensor chip measures changes in refractive index, and the changes in refractive index correlate to changes in mass in the aqueous layer close to the sensor surface. When target molecules in solution bind to ligands, immobilised on the sensor surface, the mass increases, and when they dissociate from the ligands the mass decreases. This principle facilitates a continuous, real time monitoring of the association and dissociation of interacting molecules. The graphical presentation of the relationship provides quantitative information in real time on the binding specificity, active concentration of molecule in a sample, reaction kinetics and affinity. […]
(§1) The DAP candidates were analysed for binding to the capturing ligand sensor chip and the target biomolecule sensor chip respectively. […]
Immobilisation occurred by direct covalent coupling to the surface (using the Amine Coupling Kit, BiaCore, GE Health Care) or via a capturing molecule as prescribed by the manufacturer (BiaCore, GE Health Care). The amount of coupled target was quantified and expressed in […] (RU). […]

Test [3] relates to VhhRR6(R2)-Z (variable region of Llama single chain antibody against RR6 fused to Z domain of Staphylococcus aureus protein A, SEQ ID NO 28). The test is described as follows: Biacore SPR, binding of DAP VhhRR6(R2)-Z to Reactive Red 6 ligand (biotin-Reactive Red 6 on SA chip). The note with it: Table 1 (summary, rounded).
Text: The commercialised surface plasmon resonance (SPR) technology for real time monitoring biomolecular binding event is used to measure the binding affinities for the prepared DAP candidates. The general principle of this technology is that a SPR sensor chip measures changes in refractive index, and the changes in refractive index correlate to changes in mass in the aqueous layer close to the sensor surface. When target molecules in solution bind to ligands, immobilised on the sensor surface, the mass increases, and when they dissociate from the ligands the mass decreases. This principle facilitates a continuous, real time monitoring of the association and dissociation of interacting molecules. The graphical presentation of the relationship provides quantitative information in real time on the binding specificity, active concentration of molecule in a sample, reaction kinetics and affinity.
In order to evaluate the binding affinities for both of the binding affinities present in the DAP either IgG or the capturing ligand had to be immobilized onto the sensor chip. For IgG rabbit anti-Mannanase was used and for the ligand the chip was coated with streptavidin and the ligand was then immobilized via biotin linked to the appropriate ligand.
In order to measure the binding to RR6 and acarbose the following compounds were prepared; biotin-linked acarbose and biotin-linked RR6.
The mixture was stirred at RT for 30 min. […]
as §1
Immobilisation occurred by direct covalent coupling to the surface (using the Amine Coupling Kit, BiaCore, GE Health Care) or via a capturing molecule as prescribed by the manufacturer (BiaCore, GE Health Care). The amount of coupled target was quantified and expressed in Refractive Units (RU).
Interactions were monitored by injecting samples (20 μl/min) over the prepared sensor surface of the chip. Unless stated otherwise, the binding was assessed in 10 mM sodium acetatbuffer pH 5.0 at room temperature. […]

T1 sequence (P69328 25-526, added parts left off): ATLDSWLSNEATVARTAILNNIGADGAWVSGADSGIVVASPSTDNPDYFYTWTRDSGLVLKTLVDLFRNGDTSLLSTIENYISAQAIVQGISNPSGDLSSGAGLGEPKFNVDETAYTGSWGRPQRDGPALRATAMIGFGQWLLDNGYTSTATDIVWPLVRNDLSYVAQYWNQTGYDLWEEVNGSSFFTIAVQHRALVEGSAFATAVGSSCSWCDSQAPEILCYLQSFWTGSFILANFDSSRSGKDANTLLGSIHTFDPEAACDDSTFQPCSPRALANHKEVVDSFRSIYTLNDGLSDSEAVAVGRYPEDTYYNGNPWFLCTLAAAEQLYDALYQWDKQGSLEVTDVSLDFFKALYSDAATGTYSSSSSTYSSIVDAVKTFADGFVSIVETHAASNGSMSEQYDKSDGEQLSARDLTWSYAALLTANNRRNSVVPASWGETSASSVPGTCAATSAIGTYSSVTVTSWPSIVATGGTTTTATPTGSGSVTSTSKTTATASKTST

For `C[C@H]1O[C@H](O[C@H]2[C@H](O)[C@@H](O)[C@@H](O[C@H]3[C@H](O)[C@@H](O)C(O)O[C@@H]3CO)O[C@@H]2CO)[C@H](O)[C@@H](O)[C@@H]1N[C@H]1C=C(CO)[C@@H](O)[C@H](O)[C@H]1O` (stereo partly shown) [Acarbose], the kon in test [1] (pH 5, read-out: Ligand binding ka) is 10000 M⁻¹ s⁻¹. In addition, in test [1] (pH 5, read-out: Ligand binding kd), the koff was determined as 0.002 s⁻¹.

Reactive Red 6 [RR6]: in test [2], the Kd came to 10 µM and the “binding after injection is stopped” value is listed as “the binding is broken completely as soon as the injection is stopped”. For the same molecule, in test [3], the equilibrium dissociation constant (Kd) came out at 0.2 µM, the Ligand binding ka is 20000 M⁻¹ s⁻¹ and the Ligand binding kd was determined as 0.004 s⁻¹.

A word on the Kd: it is the free concentration of one partner at which half of the binding sites on the other are occupied at equilibrium, for simple one-to-one binding.
